Where two headings read alike, the source gives them in different places.
Test system: HBsAg
Assay: HBsAg assay: inhibition of HBsAg in HepG2.2.15 cells (chemiluminescence immunoassay of supernatant)
Type: cell-based, hepatitis B virus
Conditions: HBsAg in supernatant at day 6 after exposure to compound, 0.5% DMSO
Protocol: Inhibition of HBsAg was determined in HepG2.2.15 cells. Cells were maintained in culture medium containing 10% fetal calf serum, […], Glutamine, penicillin/streptomycin. Cells were seeded in 96-well collagen-coated plate at a density of 30,000 cells/well. Serially diluted compounds were added to cells next day at the final DMSO concentration of 0.5%. Cells were incubated with compounds for 2-3 days, after which medium was removed. Fresh medium containing compounds was added to cells for additional 3-4 days. At day 6 after exposure of compounds, supernatant was collected, the HBsAg immunoassay (microplate-based chemiluminescence immunoassay kits, CLIA, Autobio Diagnosics Co., Zhengzhou, China, Catalog # CL0310-2) was used to determine the level of HBsAg according to manufactory instruction. Dose-response curves were generated and the EC50 value (effective concentrations that achieved 50% inhibitory effect) were determined using XLfit software. In addition, cells were seeded at a density of 5,000 cells/well for determination of cell viability in the presence and absence of compounds by using CellTiter-Glo reagent (Promega).
Table 1 illustrates EC50 values obtained by the HBsAg assay for selected compounds.

[1] = read-out: sAg EC50, HepG2.2.15 cells
[2] = Hepatitis B virus, HepG2.2.15, 144 h, read-out: sAg EC50, HepG2.2.15 cells

COc1cc(C2CC2c2cnc(-c3ncccn3)nc2C2CCCCC2)ccc1F (single isomer, unassigned) [Example 78, trans-4-Cyclohexyl-5-(2-(4-fluoro-3-methoxyphenyl)cyclopropyl)-2,2′-bipyrimidine] showed an EC50 [1] of 11000 nM.

For COc1cc([C@@H]2C[C@H]2c2cnc(-c3ccccn3)nc2)cc(F)c1F (relative stereo) [Example 174, trans-5-(2-(3,4-Difluoro-5-methoxyphenyl)cyclopropyl)-2-(pyridin-2-yl)pyrimidine], the EC50 [2] was 67 nM.

Work on Oc1cnn(-c2cc(C3CC3c3cnc(-c4ncccn4)nc3)cc(F)c2F)c1 (single isomer, unassigned) [Example 259, trans-1-(5-(2-([2,2′-Bipyrimidin]-5-yl)cyclopropyl)-2,3-difluorophenyl)-1H-pyrazol-4-ol] yielded an EC50 [1] of 2000 nM.

COCCOc1cc(C2CC2c2cnc(-c3ncccn3)nc2)cc(F)c1F (single isomer, unassigned) [Example 134, trans-5-(2-(3,4-Difluoro-5-(2-methoxyethoxy)phenyl)cyclopropyl)-2,2′-bipyrimidine] gave an EC50 [1] of 300 nM.

COc1cc(C2CC2c2ccc(-c3ncccn3)nn2)ccc1F (single isomer, unassigned) [Example 191, trans-3-(2-(4-Fluoro-3-methoxyphenyl)cyclopropyl)-6-(pyrimidin-2-yl)pyridazine] was tested, and the EC50 [1] was 2000 nM.

Fc1cn(-c2cc(C3CC3c3cnc(-c4ncccn4)nc3)cc(F)c2F)cc1F (single isomer, unassigned) [Example 258, trans-5-(2-(3-(3,4-Difluoro-1H-pyrrol-1-yl)-4,5-difluorophenyl)cyclopropyl)-2,2′-bipyrimidine] showed an EC50 [1] of 14 nM.

CN1CCN(c2cc(C3CC3c3cnc(-c4ncccn4)nc3)ccc2F)CC1 (single isomer, unassigned) [Example 187, trans-5-(2-(4-Fluoro-3-(4-methylpiperazin-1-yl)phenyl)cyclopropyl)-2,2′-bipyrimidine] gave an EC50 [1] of 15000 nM.

COc1cc(C2CC2c2cnc(-c3ncccn3)nc2C)ccc1F (single isomer, unassigned) [Example 18, trans-5-(2-(4-Fluoro-3-methoxyphenyl)cyclopropyl)-4-methyl-2,2′-bipyrimidine] gave an EC50 [1] of 890 nM.

Cn1ccc(COc2cc([C@@H]3C[C@H]3c3cnc(-c4ncccn4)nc3)cc(F)c2F)n1 (relative stereo) [Example 219, trans-5-(2-(3,4-Difluoro-5-((1-methyl-1H-pyrazol-3-yl)methoxy)phenyl)cyclopropyl)-2,2′-bipyrimidine] showed an EC50 [2] of 96 nM.

Compound Cc1cn(-c2cc(C3CC3c3cnc(-c4ncccn4)nc3)cc(F)c2F)cn1 (single isomer, unassigned) [Example 261, trans-5-(2-(3,4-Difluoro-5-(4-methyl-1H-imidazol-1-yl)phenyl)cyclopropyl)-2,2′-bipyrimidine] has an EC50 [1] of 670 nM.

Fc1cc(C2CC2c2cnc(-c3ncccn3)nc2)cc(N2CCCC2)c1Cl (single isomer, unassigned) [Example 91, trans-5-(2-(4-Chloro-3-fluoro-5-(pyrrolidin-1-yl)phenyl)cyclopropyl)-2,2′-bipyrimidine] was tested, and the EC50 [1] was 14 nM.

Work on COc1cc(C2CN(c3cc([C@@H]4C[C@H]4c4cnc(-c5ncccn5)nc4)cc(F)c3F)C2)cc(F)c1F (relative stereo) [Example 213, trans-5-(2-(3-(3-(3,4-Difluoro-5-methoxyphenyl)azetidin-1-yl)-4,5-difluorophenyl)cyclopropyl)-2,2′-bipyrimidine] yielded an EC50 [2] of 73 nM.

Compound COc1cc(C2CC2c2cnc(-c3ncccn3)nc2)cc(Cl)c1Cl (single isomer, unassigned) [Example 59, trans-5-(2-(3,4-Dichloro-5-methoxyphenyl)cyclopropyl)-2,2′-bipyrimidine] has an EC50 [1] of 32 nM.

COc1cc(C2CC2c2cnc(-c3ncccn3)nc2N2CCCCC2)ccc1F (single isomer, unassigned) [Example 145, trans-5-(2-(4-Fluoro-3-methoxyphenyl)cyclopropyl)-4-(piperidin-1-yl)-2,2′-bipyrimidine] showed an EC50 [1] of 700 nM.

In the case of CN(C)c1cc(C2CC2c2cnc(-c3ncccn3)nc2)ccc1F (single isomer, unassigned) [Example 63, trans-5-(2-([2,2′-Bipyrimidin]-5-yl)cyclopropyl)-2-fluoro-N,N-dimethylaniline], the EC50 [1] is reported as 390 nM.

Fc1cc(C2CC2c2cnc(-c3ncccn3)nc2)cc(O[C@@H]2CCOC2)c1F (single isomer, unassigned) [Example 247] was tested, and the EC50 [1] was 76 nM.

Fc1cc(C2CC2c2cnc(-c3ncccn3)nc2)cc(OCC2CC2)c1F (single isomer, unassigned) [Example 128, trans-5-(2-(3-(Cyclopropylmethoxy)-4,5-difluorophenyl)cyclopropyl)-2,2′-bipyrimidine] gave an EC50 [1] of 420 nM.

In the case of COc1cc(C2CC2c2cnc(-c3ncccn3)nc2-c2ccccc2)ccc1F (single isomer, unassigned) [Example 143, trans-5-(2-(4-Fluoro-3-methoxyphenyl)cyclopropyl)-4-phenyl-2,2′-bipyrimidine], the EC50 [1] is reported as 120 nM.

CO[C@@H]1CCN(c2cc(C3CC3c3cnc(-c4ncccn4)nc3)cc(Cl)c2F)C1 (single isomer, unassigned) [Example 111] gave an EC50 [1] of 120 nM.

In the case of CN(C)C(=O)c1cc(C2CC2c2cnc(-c3ncccn3)nc2)ccc1Cl (single isomer, unassigned) [Example 203, trans-5-(2-([2,2′-Bipyrimidin]-5-yl)cyclopropyl)-2-chloro-N,N-dimethylbenzamide], the EC50 [2] is reported as 6000 nM.

In the case of COc1cc([C@@H]2C[C@H]2c2cnc(-c3ncccn3)nc2)cc(C(F)(F)F)c1 (relative stereo) [Example 163, trans-5-(2-(3-Methoxy-5-(trifluoromethyl)phenyl)cyclopropyl)-2,2′-bipyrimidine], the EC50 [2] is reported as 140 nM.

COc1cc(C2CC2c2cnc(-c3ncccn3)nc2)cc(OC)c1Cl (single isomer, unassigned) [Example 98, trans-5-(2-(4-Chloro-3,5-dimethoxyphenyl)cyclopropyl)-2,2′-bipyrimidine] was tested, and the EC50 [1] was 350 nM.

In the case of CC1(C)CN(c2cc(C3CC3c3cnc(-c4ncccn4)nc3)cc(F)c2F)C1 (single isomer, unassigned) [Example 139, trans-5-(2-(3-(3,3-Dimethylazetidin-1-yl)-4,5-difluorophenyl)cyclopropyl)-2,2′-bipyrimidine], the EC50 [1] is reported as 88 nM.

In the case of COc1cc(C2CC2c2cnc(-c3ncccn3)nc2-c2ccc3nc(C)sc3c2)ccc1F (single isomer, unassigned) [Example 141, trans-6-(5-(2-(4-Fluoro-3-methoxyphenyl)cyclopropyl)-[2,2′-bipyrimidin]-4-yl)-2-methylbenzo[d]thiazole], the EC50 [1] is reported as 1200 nM.

With COc1cc(C2CC2c2cnc(-c3ncccn3)nc2)cnc1OC (single isomer, unassigned) [Example 183, trans-5-(2-(5,6-Dimethoxypyridin-3-yl)cyclopropyl)-2,2′-bipyrimidine] the EC50 [2] was 910 nM.

Work on c1cnc(-c2ncc([C@@H]3C[C@H]3c3cnc4ccccn34)cn2)nc1 (relative stereo) [Example 170, trans-3-(2-([2,2′-Bipyrimidin]-5-yl)cyclopropyl)imidazo[1,2-a]pyridine] yielded an EC50 [2] of 1000 nM.

With CCOC(=O)C1C(c2cnc(-c3ncccn3)nc2)C1c1cc(F)c(F)c(OC)c1 (stereo not drawn) [Example 263, trans-Ethyl 2-([2,2′-bipyrimidin]-5-yl)-3-(3,4-difluoro-5-methoxyphenyl)cyclopropane-1-carboxylate] the EC50 [2] was 12000 nM.

In the case of COc1ccc(C2CC2c2cnc(-c3ncccn3)nc2)c(F)c1 (single isomer, unassigned) [Example 2, trans-5-(2-(2-Fluoro-4-methoxyphenyl)cyclopropyl)-2,2′-bipyrimidine], the EC50 [1] is reported as 230 nM.

With Fc1ccc(C2CC2c2cnc(-c3ncccn3)nc2)cc1Cl (single isomer, unassigned) [Example 29, trans-5-(2-(3-Chloro-4-fluorophenyl)cyclopropyl)-2,2′-bipyrimidine] the EC50 [1] was 780 nM.

COCCOc1ccc(C2CC2c2cnc(-c3ncccn3)nc2)cc1F (single isomer, unassigned) [Example 23, trans-5-(2-(3-Fluoro-4-(2-methoxyethoxy)phenyl)cyclopropyl)-2,2′-bipyrimidine] showed an EC50 [2] of 95 nM.

Fc1c(Cl)cc(C2CC2c2cnc(-c3ncccn3)nc2)cc1N1CCCC1 (single isomer, unassigned) [Example 109, trans-5-(2-(3-Chloro-4-fluoro-5-(pyrrolidin-1-yl)phenyl)cyclopropyl)-2,2′-bipyrimidine] showed an EC50 [1] of 25 nM.

For OC1CC2(C1)CN(c1cc([C@@H]3C[C@H]3c3cnc(-c4ncccn4)nc3)cc(F)c1F)C2 (relative stereo) [Example 238, trans-2-(5-(2-([2,2′-Bipyrimidin]-5-yl)cyclopropyl)-2,3-difluorophenyl)-2-azaspiro[3.3]heptan-6-ol], the EC50 [2] was 53 nM.

For COc1cc([C@@H]2C[C@H]2c2cnc(-c3ncccn3)nc2C)ccc1F (relative stereo) [Example 16, trans-5-(2-(4-Fluoro-3-methoxyphenyl)cyclopropyl)-4-methyl-2,2′-bipyrimidine], the EC50 [2] was 750 nM.

Work on COCCCn1ncc2c([C@@H]3C[C@H]3c3cnc(-c4ncccn4)nc3)cc(F)c(F)c21 (relative stereo) [Example 264, trans-4-(2-([2,2′-Bipyrimidin]-5-yl)cyclopropyl)-6,7-difluoro-1-(3-methoxypropyl)-1H-indazole] yielded an EC50 [2] of 4 nM.
